Here are results for three molecules from patent US20230257653A1, “FRACTAL FORMULATIONS” (NANOGYRE Sprl., priority 2020, published 2023).

The nature of data set [1]: Visual stability of the mother solution diluted in distilled water (pH 7) or acetic acid (pH 2.2). Type of data set: physicochemical. The settings on record: absence of light, 24 h. The method, then:
(§1) 400 μl of the solution produced are taken and poured into a tube of 5 ml of distilled water (pH 7).
400 μl of the solution produced are taken and poured into a tube of 5 ml of acetic acid (pH 2.2).
as §1
200 μl of the solution produced are taken and poured into a tube of 5 ml of distilled water (pH 7).
200 μl of the solution produced are taken and poured into a tube of 5 ml of acetic acid (pH 2.2).
250 μl of the solution produced are taken and poured into a tube of 5 ml of distilled water (pH 7).
250 μl of the solution produced are taken and poured into a tube of 5 ml of acetic acid (pH 2.2).

The nature of data set [2]: Solubilization of hydrophobic cargo in betaine/Polysorbate 80/water liquid crystal, centrifugation 4000 rpm. The method, then:
Mixing 2 ml of distilled water and 40 μL of Polysorbate 80, then adding 400 mg of pure curcumin, manually mixing and then adding 2 g of betaine all again mixed by vigorous manual stirring. The mixture of the 4 ingredients is then subjected for 20 minutes to a centrifugation of 4000 rpm.
(§2) The mixture of the 4 ingredients is then subjected for 30 minutes to a centrifugation of 4000 rpm.
The mixture of the 4 ingredients is then subjected for 40 minutes to a centrifugation of 4000 rpm.
as §2
Mixing 2 ml of distilled water and 35 μL of Polysorbate 80, then adding 50 mg of Clofazimine, mixing manually and then subjecting to a centrifugation of 4000 rpm and then adding 2 g of betaine all again mixed by vigorous manual stirring. The mixture of the 4 ingredients is then subjected for 30 minutes to a centrifugation of 4000 rpm.

The nature of data set [3]: Storage stability of the mother solution (deposition). The settings on record: no ethanol.
For data set [4] the following is noted: substance alone; cited from earlier work.
For data set [5] the following is noted: octanol/water partition coefficient; cited from earlier work.
Data set [6] is described as follows: Redissolution of dried, ground liquid crystal powders and visual pH variation test. It counts as physicochemical. The settings on record: for changes of resolubilized dry powder solution over time: absence of light, 24 h. The method, then: The remaining solution of the preceding example is poured into a glass Petri dish (diameter 35 mm) and subjected to drying at 60° C. in a hot air dehydrator (Stockli).
The dry product is then ground until it reaches±50 Mesh and stored in the absence of light and moisture for 10 days.
Next, 100 mg of dry powder are taken and poured into a tube of 5 ml of distilled water (pH 7).
Next, 100 mg of dry powder are taken and poured into a tube of 5 ml of acetic acid (pH 2.2).
Then this acidic solution is brought to an alkaline pH of 8 by adding sodium bicarbonate, in order to mimic the conditions of the pH differences encountered in the stomach and then the intestine.

The nature of data set [7]: DLS (Dynamic Light Scattering) particle size of resolubilized dry powder, Zetasizer. It counts as physicochemical. The settings on record: 100 mg dry powder in 100 ml pure water, kept in the dark 14 days. On the procedure: 100 mg of dry powder of Curcumin of the preceding example are dissolved in 100 ml of pure water before being kept in the dark for 14 days. This solution is then evaluated with DLS (Dynamic Light Scattering) in a Zetasizer apparatus (University of Namur).

The mark [8] stands for this setting: mother solution poured into 5 ml acetic acid (pH 2.2).
Setting [9] is: mother solution poured into 5 ml distilled water (pH 7).

Values after ≈ are worked out from the molar mass of the structure shown. Read-outs that look alike come from different tables or passages of the source.

Regarding `C=C(C)[C@@H]1CCC(C)=C[C@H]1c1c(O)cc(CCCCC)cc1O` [Cannabidiol], the “changes of diluted solution over time” value in data set [1] (setting [8]) and in data set [1] (setting [9]) was “no changes over time” in each case. For the same molecule, the “estimated concentration of mother solution after centrifugation” value (shortened to “estimated concentration”) in data set [2] (2 ml water, Polysorbate 80, 2 g betaine, no ethanol) was 47 mg/mL. For the same molecule, the “stability of mother solution on storage” value in data set [3] is recorded as “remained stable without any deposition, or modification for a year”.

As for `CC(C)/N=c1\cc2n(-c3ccc(Cl)cc3)c3ccccc3nc-2cc1Nc1ccc(Cl)cc1` [Clofazimine], the “Solubility in Water” value in data set [4] is 1.51 µg/mL (≈ 3.19 µM). Also, the “Log P” value in data set [5] is recorded as 7.39. The “changes of diluted solution over time” value in data set [1] (setting [8]) and in data set [1] (setting [9]) was “no changes over time” throughout. Further, the “estimated concentration” value in data set [2] is 14.7 mg/mL. Further, the “factor by which solubility in water was multiplied” value in data set [2] amounted to 9730. Further, the “solubilization result (visual)” value in data set [2] is listed as “completely solubilized”. Moreover, the “dissolution of dry powder” value in data set [6] (100 mg dry powder (stored 10 days) in 5 ml acetic acid (pH 2.2)) and in data set [6] (100 mg dry powder (stored 10 days) in 5 ml distilled water (pH 7)) was “immediately solubilizes” in each case. Further, the “changes of resolubilized dry powder solution over time” value in data set [6] (5 ml acetic acid (pH 2.2)) and in data set [6] (5 ml distilled water (pH 7)) was “no changes over time” in each case. Also, the “stability of the acidic solution brought to alkaline pH” value in data set [6] (pH 2.2 solution brought to pH 8 with sodium bicarbonate) is reported as “remains stable without any precipitation or modification”.

For `COc1cc(/C=C/C(=O)CC(=O)/C=C/c2ccc(O)c(OC)c2)ccc1O` [Curcumin], in data set [7], the “average particle size of the solution” value was no more than 10 nanometers and the polydispersity result is listed as “very low”. For the same molecule, the “Solubility in Water” value in data set [4] was 5.75 µg/mL (≈ 15.6 µM). Moreover, the “changes of diluted solution over time” value in data set [1] (setting [8]) is given as “no changes over time”. In addition, the “changes of diluted solution over time” value in data set [1] (setting [9]) was “no changes over time”. In data set [2], the “estimated concentration” value was 80 mg/mL, the “factor by which solubility in water was multiplied” value is on record as 10,000 and the “non-solubilized fraction remaining in the bottom of the tube (pellet/base)” value was 30-40%. In addition, the “concentration of mother solution weighted for the pellet/base” value in data set [2] (2 ml water, 40 μL Polysorbate 80, 2 g betaine, no ethanol) came out at 60000 µg/mL.

The term Log P denotes the decadic logarithm of the partition coefficient of the neutral form, usually between octanol and water.
